Results taken from patent publication US6103728A, “Quinazolines” (Sugen, Inc., priority 1997, dated 2000).

Columns and labels:
Format in all cases: cell-based
EGFR = target: T1, EGFR (Homo sapiens, UniProt P00533); test: EGFR Whole Cell Kinase Assay (EGFR-3T3 assay, ELISA); settings: NIH3T3 clone C7 over-expressing human EGF receptor; 25 nM EGF
T1 construct: expressed in transfected cells; host or cells: NIH3T3 clone C7 (EGFR/C7)
Source text: (§1) The following examples illustrates the ability of the exemplary compounds to inhibit receptor tyrosine kinases, such as HER2 and/or EGFR. The following target cells were used for cellular kinase assays: NIH3T3 clone C7 (Honegger et al., supra) engineered to over-express human EGF receptor; NIH3T3 cells engineered to over-express a chimeric receptor containing the EGFR extracellular domain and the HER2 intracellular kinase domain; the human mammary carcinoma line BT474 (ATCC ATB2) expressing HER2; and the human glioblastoma line U1242 that expresses PDGFR-beta. Growth assays were carried out using human mammary epithelial SKBR3 (ATCC HTB30) cells (SKBR3 cells over-express HER2), SKOV3 (ATCC HTB77) human ovarian cancer cell line (SKOV3 cells also over-express HER2), A431 cells (A431 cells over-express EGFR) MCF7 human breast carcinoma cells, MCF7 cells overexpressing the HER2 kinase (MCF7-HER2), NIH3T3 cells, and NIH3T3 cells overexpressing the HER2 kinase (3T3-HER2.
EGFR Whole Cell Kinase Assay
EGFR kinase activity (EGFR-3T3 assay) in whole cells was measured as described below:
A. Coat ELISA plates (Corning, 96 well, Cat. #25805-96) with 05-101 antibody at 0.5 μg per well in PBS, 150 μl final volume/well, and store overnight at 4° C. Coated plates are good for up to 10 days when stored at 4° C. […]

PDGFR-beta = target: T2, PDGFR-beta (Homo sapiens, UniProt P09619); test: PDGF-R Cellular Assay (ELISA); settings: human glioblastoma line U1242; PDGF-BB 100 ng/ml
T2 construct: the human glioblastoma line U1242 that expresses PDGFR-beta; endogenous in cells; host or cells: U1242 (U1242 MG) human glioblastoma cells
T2 sequence (P09619 33-1106): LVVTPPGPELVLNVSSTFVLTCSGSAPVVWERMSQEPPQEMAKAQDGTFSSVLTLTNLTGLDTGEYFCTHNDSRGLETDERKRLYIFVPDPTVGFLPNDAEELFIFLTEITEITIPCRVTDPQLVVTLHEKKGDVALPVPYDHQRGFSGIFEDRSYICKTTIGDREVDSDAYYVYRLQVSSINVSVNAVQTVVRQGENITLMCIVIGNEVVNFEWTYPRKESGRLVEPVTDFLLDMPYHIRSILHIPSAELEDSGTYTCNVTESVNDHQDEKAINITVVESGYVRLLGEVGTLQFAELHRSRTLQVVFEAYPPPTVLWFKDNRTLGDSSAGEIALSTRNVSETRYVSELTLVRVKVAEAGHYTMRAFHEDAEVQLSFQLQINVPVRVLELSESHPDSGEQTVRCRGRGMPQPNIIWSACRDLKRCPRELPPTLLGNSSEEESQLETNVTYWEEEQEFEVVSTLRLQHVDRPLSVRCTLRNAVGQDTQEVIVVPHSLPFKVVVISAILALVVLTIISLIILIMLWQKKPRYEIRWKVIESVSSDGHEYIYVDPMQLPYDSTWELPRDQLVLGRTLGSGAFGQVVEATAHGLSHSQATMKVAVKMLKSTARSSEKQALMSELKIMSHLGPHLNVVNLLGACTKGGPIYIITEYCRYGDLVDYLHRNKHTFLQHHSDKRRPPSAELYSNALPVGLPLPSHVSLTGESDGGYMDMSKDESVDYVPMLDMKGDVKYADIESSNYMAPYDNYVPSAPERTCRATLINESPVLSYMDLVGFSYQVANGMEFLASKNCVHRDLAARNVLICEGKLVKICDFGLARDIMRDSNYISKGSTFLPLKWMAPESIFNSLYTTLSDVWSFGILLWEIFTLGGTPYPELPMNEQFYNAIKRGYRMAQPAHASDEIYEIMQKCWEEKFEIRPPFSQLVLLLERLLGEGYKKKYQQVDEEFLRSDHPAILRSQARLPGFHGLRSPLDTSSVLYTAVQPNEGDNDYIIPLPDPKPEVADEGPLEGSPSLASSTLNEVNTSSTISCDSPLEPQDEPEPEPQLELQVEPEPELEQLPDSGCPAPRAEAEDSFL
Source text: as §1, with “(3T3-HER2. […]” for “(3T3-HER2.”

IGF-1 Receptor = target: T3, IGF-1 Receptor (Homo sapiens, UniProt P08069); test: Cellular IGF-1 Receptor ELISA (3T3/IGF-1R cells); settings: 20 nM IGF-1, serum-free, 2 h drug incubation
T3 construct: expressed in transfected cells; host or cells: 3T3 cells (3T3/IGF-1R)
T3 sequence (P08069 31-1367): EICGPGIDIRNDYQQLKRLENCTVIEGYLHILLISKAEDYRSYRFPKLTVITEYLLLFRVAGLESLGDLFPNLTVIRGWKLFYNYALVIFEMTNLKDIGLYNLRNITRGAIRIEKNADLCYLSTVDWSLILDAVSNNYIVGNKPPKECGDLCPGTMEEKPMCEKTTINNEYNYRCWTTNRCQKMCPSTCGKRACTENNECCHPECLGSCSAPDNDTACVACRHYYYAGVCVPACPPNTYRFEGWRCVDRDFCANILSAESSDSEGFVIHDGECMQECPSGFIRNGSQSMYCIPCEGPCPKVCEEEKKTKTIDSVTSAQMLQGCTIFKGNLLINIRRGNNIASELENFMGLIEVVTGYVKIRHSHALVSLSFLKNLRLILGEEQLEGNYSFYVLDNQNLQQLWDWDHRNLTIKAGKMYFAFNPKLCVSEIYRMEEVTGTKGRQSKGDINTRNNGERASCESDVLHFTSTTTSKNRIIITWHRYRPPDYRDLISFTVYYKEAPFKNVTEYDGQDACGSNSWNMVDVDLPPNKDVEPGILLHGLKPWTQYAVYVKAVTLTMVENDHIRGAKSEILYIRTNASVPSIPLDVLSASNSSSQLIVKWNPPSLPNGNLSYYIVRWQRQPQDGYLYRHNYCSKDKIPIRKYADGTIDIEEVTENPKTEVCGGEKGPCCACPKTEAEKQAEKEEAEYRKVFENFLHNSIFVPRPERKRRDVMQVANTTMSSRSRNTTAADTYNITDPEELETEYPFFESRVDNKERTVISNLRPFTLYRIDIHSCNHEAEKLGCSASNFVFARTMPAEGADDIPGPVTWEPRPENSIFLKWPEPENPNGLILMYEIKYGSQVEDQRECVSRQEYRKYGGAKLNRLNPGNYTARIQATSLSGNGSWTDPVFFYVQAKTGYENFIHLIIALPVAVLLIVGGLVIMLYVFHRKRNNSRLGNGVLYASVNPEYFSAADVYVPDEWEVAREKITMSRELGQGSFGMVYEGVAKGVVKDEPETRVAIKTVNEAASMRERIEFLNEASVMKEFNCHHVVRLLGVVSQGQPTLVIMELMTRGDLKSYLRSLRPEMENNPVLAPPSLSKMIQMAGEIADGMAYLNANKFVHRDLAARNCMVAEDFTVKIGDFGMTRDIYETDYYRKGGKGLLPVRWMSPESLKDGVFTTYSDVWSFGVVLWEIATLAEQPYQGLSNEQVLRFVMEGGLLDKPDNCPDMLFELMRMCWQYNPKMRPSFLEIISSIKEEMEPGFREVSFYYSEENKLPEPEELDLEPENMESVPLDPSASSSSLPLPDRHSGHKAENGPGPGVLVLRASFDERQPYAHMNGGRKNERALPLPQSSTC

[1] = system: chimeric receptor containing the EGFR extracellular domain and the HER2 intracellular kinase domain; test: EGFR-HER2 chimeric receptor whole cell kinase assay in NIH3T3 cells (ELISA); settings: NIH3T3 cells with EGFR/HER2 chimeric receptor; 100 nM EGF; 2 h drug incubation; read-out: ELISA DATA HER2 - (3T3)
Source text: as §1
EGFR-HER2 Chimeric Recetor
HER2 kinase activity (EGFR-3T3) in whole cells was measured as described below:
The materials and reagents are identical to these used in example 1, the EGFR whole cell kinase assay.
A. Coat ELISA plates (Corning, 96 well, Cat. #25805-96) with 05-101 antibody at 0.5 µg per well in PBS, 100 μl final volume/well, and store overnight at 4° C. […]

HER2 = target: T4, HER2 (Homo sapiens, UniProt P04626); test: HER2-ELISA, whole cell HER2 activity in BT474 cells; settings: BT474 human breast tumor cells; serum-free; 2 h drug preincubation
T4 construct: a human breast tumor cell line which expresses high levels of HER2 kinase; endogenous in cells; host or cells: BT-474 human breast tumor cells
T4 sequence (P04626 23-1255): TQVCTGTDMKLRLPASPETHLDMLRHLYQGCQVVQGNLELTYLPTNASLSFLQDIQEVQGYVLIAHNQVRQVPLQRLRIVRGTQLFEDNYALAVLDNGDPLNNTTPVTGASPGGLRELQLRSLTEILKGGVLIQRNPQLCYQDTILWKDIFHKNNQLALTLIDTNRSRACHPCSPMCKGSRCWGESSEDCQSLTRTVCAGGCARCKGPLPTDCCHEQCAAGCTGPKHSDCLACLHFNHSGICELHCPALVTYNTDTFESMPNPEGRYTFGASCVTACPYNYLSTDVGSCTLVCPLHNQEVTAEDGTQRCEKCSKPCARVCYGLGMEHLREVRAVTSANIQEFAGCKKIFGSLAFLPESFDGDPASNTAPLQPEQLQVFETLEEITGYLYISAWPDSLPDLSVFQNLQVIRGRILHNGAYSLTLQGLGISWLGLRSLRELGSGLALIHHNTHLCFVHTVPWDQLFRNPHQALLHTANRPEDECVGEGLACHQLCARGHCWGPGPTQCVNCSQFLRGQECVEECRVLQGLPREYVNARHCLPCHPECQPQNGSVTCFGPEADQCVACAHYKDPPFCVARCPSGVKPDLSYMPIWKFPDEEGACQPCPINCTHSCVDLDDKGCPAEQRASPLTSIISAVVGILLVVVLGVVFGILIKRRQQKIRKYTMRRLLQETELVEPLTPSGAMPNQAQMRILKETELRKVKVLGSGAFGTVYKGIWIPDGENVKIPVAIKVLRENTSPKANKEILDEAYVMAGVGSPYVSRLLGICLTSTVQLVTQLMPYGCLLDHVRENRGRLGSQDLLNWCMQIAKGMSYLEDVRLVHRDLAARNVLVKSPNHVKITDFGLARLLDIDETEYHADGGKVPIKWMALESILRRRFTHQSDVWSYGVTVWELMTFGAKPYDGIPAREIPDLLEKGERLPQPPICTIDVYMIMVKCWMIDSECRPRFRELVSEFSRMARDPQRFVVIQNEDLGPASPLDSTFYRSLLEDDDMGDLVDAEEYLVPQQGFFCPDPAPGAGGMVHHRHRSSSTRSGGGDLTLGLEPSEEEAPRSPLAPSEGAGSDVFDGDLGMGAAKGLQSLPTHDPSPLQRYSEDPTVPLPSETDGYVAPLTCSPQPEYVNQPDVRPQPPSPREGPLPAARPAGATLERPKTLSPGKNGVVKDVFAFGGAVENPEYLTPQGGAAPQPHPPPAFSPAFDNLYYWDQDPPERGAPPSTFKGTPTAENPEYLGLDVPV
Source text: as §1
HER2-BT474 assays measuring whole cell HER2 activity was carried out as described below:
1) The cell line used in this assay is BT-474 (ATCC HBT20), a human breast tumor cell line which expresses high levels of HER2 kinase.
2) BT-474 is grown in an incubator with 5% CO2 at 37° C. The growth media is RPMI+10% FBS+GMS-G (Gibco supplement)+Glutamine.
3) A monoclonal anti-HER2 antibody is used in ELISA. […]

T1 sequence (P00533 25-1210): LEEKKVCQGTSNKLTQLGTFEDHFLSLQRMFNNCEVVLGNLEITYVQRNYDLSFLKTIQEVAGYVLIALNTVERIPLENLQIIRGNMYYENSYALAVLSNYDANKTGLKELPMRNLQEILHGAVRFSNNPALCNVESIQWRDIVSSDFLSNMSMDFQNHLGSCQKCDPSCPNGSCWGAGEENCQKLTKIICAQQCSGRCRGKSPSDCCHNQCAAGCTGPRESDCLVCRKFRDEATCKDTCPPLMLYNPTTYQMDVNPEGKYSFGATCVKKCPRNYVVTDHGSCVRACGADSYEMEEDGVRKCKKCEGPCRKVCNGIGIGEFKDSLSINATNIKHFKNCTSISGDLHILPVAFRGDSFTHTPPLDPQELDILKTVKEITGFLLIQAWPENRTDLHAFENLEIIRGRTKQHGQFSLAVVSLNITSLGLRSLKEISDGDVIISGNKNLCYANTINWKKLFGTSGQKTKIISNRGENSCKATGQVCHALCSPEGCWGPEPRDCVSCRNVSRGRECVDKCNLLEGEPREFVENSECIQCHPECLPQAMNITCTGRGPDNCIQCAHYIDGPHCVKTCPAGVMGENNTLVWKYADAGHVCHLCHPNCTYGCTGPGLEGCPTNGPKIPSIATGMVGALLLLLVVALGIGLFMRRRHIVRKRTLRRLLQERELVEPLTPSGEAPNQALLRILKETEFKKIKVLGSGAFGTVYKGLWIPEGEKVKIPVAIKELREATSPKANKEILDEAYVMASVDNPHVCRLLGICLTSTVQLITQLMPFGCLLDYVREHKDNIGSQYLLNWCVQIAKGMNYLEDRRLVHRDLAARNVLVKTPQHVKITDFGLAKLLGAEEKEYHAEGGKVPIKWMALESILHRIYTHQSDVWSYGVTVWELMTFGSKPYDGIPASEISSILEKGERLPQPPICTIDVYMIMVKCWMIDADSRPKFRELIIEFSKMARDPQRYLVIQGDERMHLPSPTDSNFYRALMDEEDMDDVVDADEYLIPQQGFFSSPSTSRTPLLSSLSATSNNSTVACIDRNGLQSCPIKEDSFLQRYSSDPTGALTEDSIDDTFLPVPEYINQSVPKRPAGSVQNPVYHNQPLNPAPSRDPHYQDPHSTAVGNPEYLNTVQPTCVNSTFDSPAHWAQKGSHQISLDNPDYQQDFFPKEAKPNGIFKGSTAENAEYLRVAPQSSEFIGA

COC(=O)C(c1cccc(Br)c1)c1ncnc2cc(OC)c(OC)cc12 (centres unmarked) [Compound D002]
IC50 (EGFR): > 100 µM | IC50 (PDGFR-beta): > 100 µM | IC50 (IGF-1 Receptor): > 50 µM | IC50 [1]: > 50 µM | IC50 (HER2): > 100 µM
